Data on 73 compounds can be found in PubChem BioAssay AID687022 (Broad Institute, 2013).

Calls of active or inactive are those of the source.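 Rule for the calls: active = Fitted curve of melting temperature shift crosses the 1.0 threshold at or below the sample's highest valid tested concentration; inconclusive = Flat fit with activity 30 to 70, or invalid fit; inactive = Opposite direction, flat within 30, or no crossing.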

This assay deals with Fibroblast growth factor 22 (Homo sapiens) (UniProt Q9HCT0). The experiment in a line: binders of human FGF22 protein, dose response, FGF22 synaptogenesis inhibitor project, biophysical, thermal shift, cherry-pick (AID 687022). Particulars: recombinant FGF22 thermal shift, SYPRO orange melting.
Fibroblast growth factor 22 (Homo sapiens), sequence (Q9HCT0 whole entry, looked up): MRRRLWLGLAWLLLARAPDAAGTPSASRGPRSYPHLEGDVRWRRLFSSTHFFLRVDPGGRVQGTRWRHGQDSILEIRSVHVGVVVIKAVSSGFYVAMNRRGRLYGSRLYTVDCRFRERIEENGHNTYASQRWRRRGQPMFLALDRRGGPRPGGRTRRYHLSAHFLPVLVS
For `O=Cc1cc(OCc2ccccc2)ccc1[B-](F)(F)F`, the AbsAC1 (concentration giving Tm-shift threshold 1.0) is 4.64 µM.
For `O=C(O)C[C@@H]1C[C@H]2c3cc(NC(=O)Nc4ccc(C(F)(F)F)cc4)ccc3O[C@H]2[C@@H](CO)O1` the value was > 10 µM (inactive); for `COc1cccc(NC(=O)N(C)C[C@@H]2Oc3cc(-c4ccccc4F)ccc3S(=O)(=O)N([C@@H](C)CO)C[C@H]2C)c1`, 16.3 µM.
In the case of `O=C(O)c1cccc(NS(=O)(=O)c2ccc(-c3ccc(S(=O)(=O)Nc4cccc(C(=O)O)c4)cc3)cc2)c1`, the AbsAC1 (concentration giving Tm-shift threshold 1.0) is 1.2 µM.
Consider `C/C(=N\NC(=O)c1ccc(NS(=O)(=O)c2cccs2)cc1)c1cccs1`, for which the AbsAC1 (concentration giving Tm-shift threshold 1.0) is 3.06 µM.
Turning to `COc1cc(NC(=O)c2cnc(N)s2)cc(C(=O)Nc2cccc(C(F)(F)F)c2)c1`, the AbsAC1 (concentration giving Tm-shift threshold 1.0) was 2.42 µM.
As for `O=C(Nc1ccc(Cl)cc1)N[C@@H]1CC[C@@H](CCNS(=O)(=O)c2ccccc2F)O[C@H]1CO`, the figure is 5.88 µM.
Take `N#Cc1cccc(NC(=O)c2ccc(S(=O)(=O)N3CCOCC3)cc2)c1`: the AbsAC1 (concentration giving Tm-shift threshold 1.0) was 4 µM.
As for `COc1ccc(C(=O)N2CCCCC2)cc1S(=O)(=O)Nc1cccc(C(=O)O)c1`, the figure is 9.12 µM; as for `O=C(C[C@@H]1CC[C@H]2[C@@H](COC[C@@H](O)CN2S(=O)(=O)c2cccc(F)c2)O1)Nc1ccccc1`, 3.53 µM.
For `O=C(N/N=C/c1c[nH]c2ccccc12)c1cccc(O)c1` the value was 2.9 µM; for `COc1ccc2c(/C=N/NS(=O)(=O)c3ccc(C)cc3)c[nH]c2c1`, 9.87 µM; for `CC1(C)CCC(=O)N2CC[C@H]3C[C@H](OC(=O)Nc4ccccc4)C[C@@H]1[C@H]32`, 12 µM.
Turning to `COc1cccc(NC(=O)N(C)C[C@H]2Oc3cc(-c4ccccc4F)ccc3S(=O)(=O)N([C@H](C)CO)C[C@H]2C)c1`, the AbsAC1 (concentration giving Tm-shift threshold 1.0) is 4.99 µM.
As for `O=[N+]([O-])c1cccc(S(=O)(=O)Nc2ccc(-c3ccc(N4CCOCC4)nn3)cc2)c1`, the AbsAC1 (concentration giving Tm-shift threshold 1.0) was 7.01 µM.
With `CCN1C/C(=C/c2cccs2)c2nc3ccccc3c(C(=O)O)c2C1`, the AbsAC1 (concentration giving Tm-shift threshold 1.0) was 3.02 µM.
On to `Cc1ccc(NC(=O)CN2C(=O)NC(Cc3c[nH]c4ccccc34)C2=O)cc1` (stereo not drawn), for which the AbsAC1 (concentration giving Tm-shift threshold 1.0) is 16.2 µM.
For `C[C@@H]1CN([C@@H](C)CO)S(=O)(=O)c2ccc(C3=CCCC3)cc2O[C@@H]1CN(C)C(=O)Nc1ccc2c(c1)OCO2` the value was 20.2 µM; for `COc1ccc(/C(=N\Nc2ccccc2C(=O)O)c2ccccc2)cc1`, > 19.5 µM (inactive); for `COc1ccc(-c2nc(-c3ccc(O)cc3O)cs2)cc1OC`, 5.56 µM.
For `CNC(=S)N(Cc1ccc(OC)cc1)C1CC(=O)N(c2ccc(C(=O)OC)cc2)C1=O` (stereo not drawn), the AbsAC1 (concentration giving Tm-shift threshold 1.0) was 3.43 µM.
As for `COc1cc(/C=N/NC(=O)CCn2c3ccccc3c3ccccc32)ccc1O`, the figure is 15.9 µM; as for `Brc1ccccc1/C=N/Nc1ccccn1`, 9.78 µM.
For `O=C(Nc1nc(-c2ccccn2)cs1)c1cccc(S(=O)(=O)N2CCOCC2)c1` the value was 9.23 µM; for `COc1ccc(NC(=O)COC(=O)Cc2c[nH]c3ccccc23)cc1Cl`, 2.76 µM.
Consider `O=C(Nc1cccnc1)c1ccc(NS(=O)(=O)c2cccc([N+](=O)[O-])c2)cc1`, for which the AbsAC1 (concentration giving Tm-shift threshold 1.0) was 8.48 µM.
As for `COc1ccc(-c2cn(CC[C@H]3CC[C@H](NC(=O)Nc4ccc(F)cc4)[C@@H](CO)O3)nn2)cc1`, the figure is 18 µM; as for `O=C(O)/C=C/c1cccc(NC(=O)Nc2ccc([N+](=O)[O-])cc2)c1`, 4.49 µM; as for `Oc1cc(O)cc(C=Cc2ccc(O)c(O)c2)c1`, 11.9 µM.
As for `Nc1cccc(-c2nc3ccc(C(=O)c4ccccc4)cc3[nH]2)c1`, the figure is 1.15 µM; as for `Cc1ccc(NC(=O)O/N=C/c2cccc([N+](=O)[O-])c2)cc1`, 17.8 µM.
For `Nc1nonc1N/N=C\c1ccccc1` the value was 4.88 µM; for `COc1cccc(NC(=O)CN(C)C(=O)c2cn(-c3ccccc3)nc2-c2cccs2)c1`, 6.16 µM.
Take `C[C@H]1CN([C@@H](C)CO)S(=O)(=O)c2ccc(-c3cccc(F)c3)cc2O[C@H]1CN(C)C(=O)Nc1cc(F)ccc1F`: the AbsAC1 (concentration giving Tm-shift threshold 1.0) is 6.67 µM.
As to `COc1ccc(N2C(=O)C(CC(=O)Nc3ccccc3)N(Cc3ccccn3)C2=S)cc1` (stereo not drawn), the AbsAC1 (concentration giving Tm-shift threshold 1.0) is 9.43 µM.
Regarding `O=C1C(=O)C(c2ccccc2)C(=O)C1c1ccccc1` (stereo not drawn), the AbsAC1 (concentration giving Tm-shift threshold 1.0) is 10.7 µM.
As for `Nc1ccccc1N=Nc1ccccc1N`, the AbsAC1 (concentration giving Tm-shift threshold 1.0) is 7.75 µM.
Turning to `Oc1ccc(/C=N/N=C/c2ccc(O)c(O)c2)cc1O`, the AbsAC1 (concentration giving Tm-shift threshold 1.0) was 2.05 µM.
As for `COc1cc(NC(=O)C2CCC(CNS(=O)(=O)c3csc(C(N)=O)c3)CC2)cc(OC)c1` (stereo not drawn), the figure is 5.8 µM.
In the case of `CC(C)c1ccc(-n2c(O)c(/C=N/NC(=O)c3ccccc3O)c(=O)[nH]c2=S)cc1`, the AbsAC1 (concentration giving Tm-shift threshold 1.0) is 3.91 µM.
As for `CCOC(=O)c1sc(N2C(=O)C(O)=C(C(=O)c3ccco3)C2c2ccc([N+](=O)[O-])cc2)nc1C` (stereo not drawn), the figure is 5.28 µM.
As for `O=c1c(O)c(-c2cc(O)c(O)c(O)c2)oc2cc(O)cc(O)c12`, the figure is 4.37 µM; as for `CN(Cc1c(C(=O)N/N=C/c2ccc(O)cc2)nnn1-c1nonc1N)c1ccccc1`, 0.867 µM.
As for `CC(=O)c1c(C)nc(-c2ccc(OCC(=O)Nc3cccc(C)c3C)cc2)n1O`, the figure is 29.7 µM; as for `O=C(CCc1ccccc1)c1c(O)cc(O)cc1O`, > 5 µM (inactive); as for `O=C(O)c1ccccc1NS(=O)(=O)c1ccc2ccccc2c1`, 4.33 µM.
As for `COc1ccccc1NC(=O)N[C@H]1CC[C@H](CCn2cc(-c3ccccc3OC)nn2)O[C@H]1CO`, the AbsAC1 (concentration giving Tm-shift threshold 1.0) is 4.01 µM.
Take `Cc1nc2c(C)cccc2cc1C(=O)N/N=C/c1ccc(O)cc1`: the AbsAC1 (concentration giving Tm-shift threshold 1.0) is 14.8 µM.
For `Cc1ccc2nc(-c3ccc(NC(=O)COCC(=O)O)cc3)sc2c1` the value was 3.64 µM; for `COc1cccc(NC(=O)N(C)C[C@H]2Oc3cc(-c4ccccc4F)ccc3S(=O)(=O)N([C@@H](C)CO)C[C@H]2C)c1`, 5.23 µM.
For `O=C(NNC(=O)c1ccccc1F)c1ccc(NS(=O)(=O)c2ccc(F)cc2)cc1` the value was 18.2 µM; for `O=C(N/N=C/c1ccc[nH]1)c1cc2ccccc2cc1O`, 3.23 µM; for `C[C@H](CO)N1C[C@H](C)[C@@H](CN(C)Cc2ccc(C(=O)O)cc2)Oc2cc(/C=C/c3ccccc3)ccc2S1(=O)=O`, > 42 µM (inactive).
For `O=C(Nc1ccc(F)cc1)N[C@H]1CC[C@@H](CCn2cc(-c3ccccc3F)nn2)O[C@@H]1CO` the value was 7.38 µM; for `COc1ccc(-c2cn(CC[C@@H]3CC[C@@H](NC(=O)Nc4ccc(F)cc4)[C@H](CO)O3)nn2)cc1`, 12.8 µM.
For `COc1ccc(-c2ccc([C@H]3[C@@H](CO)N4CCCCN(C(=O)c5ccc6c(c5)OCO6)C[C@H]34)cc2)cc1`, the AbsAC1 (concentration giving Tm-shift threshold 1.0) is 15.2 µM.
`C/C=C/c1ccc2c(c1)O[C@@H](CN(C)C(=O)Nc1cc(F)ccc1F)[C@@H](C)CN([C@H](C)CO)S2(=O)=O`: the AbsAC1 (concentration giving Tm-shift threshold 1.0) was 20.6 µM.
For `COC(=O)CN1C(=S)N(c2ccc(F)cc2)C(=O)C1CC(=O)Nc1ccccc1` (stereo not drawn) the value was 16.1 µM; for `CC(=O)Nc1ccc(NC(=O)Nc2ccccc2)cc1`, 2.14 µM.
For `CCCCNC(=O)c1onc(CSc2ccc(F)c(F)c2)c1C(=O)NCCCC` the value was 0.929 µM; for `COC(=O)CN1C(=S)N(c2ccc(Cl)cc2)C(=O)C1CC(=O)Nc1ccc(F)cc1` (stereo not drawn), 6.03 µM.
As for `C[C@H]1CN([C@@H](C)CO)S(=O)(=O)c2ccc(C3=CCCC3)cc2O[C@H]1CN(C)C(=O)Nc1ccc2c(c1)OCO2`, the figure is 22.9 µM.
For `O=C(O)c1cccc(NS(=O)(=O)c2ccc(Cl)c(C(=O)Nc3cccc([N+](=O)[O-])c3)c2)c1`, the AbsAC1 (concentration giving Tm-shift threshold 1.0) was 11.9 µM.
With `CC(=O)C1=C(O)C(=O)N(c2ccc(S(=O)(=O)Nc3nccs3)cc2)C1c1ccc(F)cc1` (stereo not drawn), the AbsAC1 (concentration giving Tm-shift threshold 1.0) is > 19.5 µM (inactive).
In the case of `CCNC(=O)C[C@@H]1CC[C@H]2[C@H](COc3ccc(NC(=O)Nc4ccc(Cl)cc4)cc3C(=O)N2C)O1`, the AbsAC1 (concentration giving Tm-shift threshold 1.0) is 6.25 µM.
As for `CCOC(=O)C(c1c(O)c2ccccc2oc1=O)c1c(O)c2ccccc2oc1=O`, the figure is > 5 µM (inactive); as for `CS(=O)(=O)N1CC(=O)N2[C@H](CO)[C@@H](c3ccc(C#CCc4ccccc4)cc3)[C@H]2C1`, 37.5 µM.
For `O=C(O)Cc1ccc(NC(=O)c2ccc(Cl)c(Cl)c2)cc1` the value was 4.5 µM; for `O=C(Nc1cc(Cl)cc(Cl)c1)N[C@@H]1CC[C@@H](CCNS(=O)(=O)c2cccc(F)c2)O[C@@H]1CO`, 5.64 µM; for `COc1ccc(/C(O)=C/C(=O)C(=O)NNC(=O)c2ccccc2)cc1`, 31.6 µM.
As for `CCOc1ccc(N2C(=O)C(CC(=O)Nc3ccccc3)N(Cc3ccccn3)C2=S)cc1` (stereo not drawn), the figure is 4.24 µM; as for `O=C(N/N=C/c1ccncc1)c1cccc(N/N=C/c2ccncc2)c1`, 8.51 µM.
On to `COc1ccc(NS(=O)(=O)c2cccc(C(=O)NNC(=O)c3ccccc3O)c2)cc1`, for which the AbsAC1 (concentration giving Tm-shift threshold 1.0) is 10.4 µM.
